Here are results for 85 compounds from PubChem BioAssay AID588780 (Sanford-Burnham Center for Chemical Genomics, 2011).

SMILES strings stand for the structures. pIC50: −log10 of the molar value. Calls of active or inactive are those of the source.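 How the source made its calls: active means compounds whose fitted half-maximal concentration in the cell-protection dose series is at or below a set limit; inactive means the rest.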

In the assay the test system is H9c2 cardiomyocytes, 2-deoxyglucose stress, ATP luminescence, 2 h. Briefly: protection of cardiomyocytes from 2-deoxyglucose injury, dose response, cell-based, 2-deoxyglucose stress, uHTS hits (AID 588780).
For `COc1cccc(N2CC(C(=O)NCc3n[nH]c(=O)c4ccccc34)CC2=O)c1` (stereo not given), the IC50 was > 79 µM (inactive).

In the case of `Cc1c(Cl)cccc1NC(=O)CNC(=O)Cc1n[nH]c(=O)c2ccccc12`, the IC50 is > 79 µM (inactive). For the compound `COc1ccc(-n2nc(C(=O)NCC(=O)Nc3cc(OC)c(OC)c(OC)c3)c3ccccc3c2=O)cc1Cl`, the IC50 was > 79 µM (inactive).

Regarding `O=C(CSc1nnc(-c2cccnc2)o1)c1cc2ccccc2oc1=O`, the IC50 was 67 µM (inactive). `COc1ccc(-c2cc(-c3nnc(COC(=O)c4ccncc4)o3)c3ccccc3n2)cc1OC`: the pIC50 was 4.94. As to `CCc1nnc(NC(=O)CSc2nnc(CNc3ccc(OC)cc3)n2C)s1`, the IC50 is > 79 µM (inactive). The same measure, in the same setting: the same measure for `O=C(Cn1[nH]c(=O)c2ccccc2c1=O)NC1CCN(Cc2ccccc2)CC1`: > 79 µM (inactive). With `CSc1nsc(SC)c1C(=O)N1CCN(S(=O)(=O)c2ccc(C)cc2)C1C(C)C` (stereo not given), the pIC50 is 4.66.

Regarding `COC(=O)c1cc(OC)c(OC)cc1NC(=O)c1ccc(C)o1`, the negative-log IC50 (pIC50) was 4.59. Consider `COC(=O)c1cc2ccc(OC)cc2c2cc(OC)c(OC)cc12`, for which the IC50 was > 79 µM (inactive).

In the case of `CC(=O)Nc1ccc2c(c1)[nH]c(=O)c1ccccc12`, the IC50 is 76.5 µM (inactive). With `c1ccc(-c2oc3ncnc(NCCN4CCOCC4)c3c2-c2ccccc2)cc1`, the pIC50 was 4.63. `CCOC(=O)N1CCC(NC(=O)c2cc3c(-c4ccccc4F)nn(C)c3s2)CC1`: the IC50 is > 79 µM (inactive). Turning to `CNC(=O)/C(C#N)=C/c1c(N(Cc2ccccc2)Cc2ccccc2)nc2ccccn2c1=O`, the pIC50 is 4.80. In the case of `O=C1c2cccnc2Oc2ccc(Cl)cc2N1Cc1ccc(F)cc1`, the IC50 is > 79 µM (inactive).

In the case of `O=C(NNC(=O)C(c1ccccc1)c1ccccc1)c1ccccn1`, the IC50 is > 79 µM (inactive).

With `CCOc1cccc(-c2nn3c(-c4ccccn4)nnc3s2)c1`, the IC50 is > 79 µM (inactive).

On to `CC(=O)Nc1cccc(NC(=O)CSc2ccc(-c3ccccn3)nn2)c1`, for which the IC50 was > 79 µM (inactive). Same read-out and setting: next, `CCN(C[C@H]1N[C@@](CC)(C(=O)OC)[C@H]2C(=O)N(Cc3ccccc3)C(=O)[C@@H]12)C(=O)c1ccc(C(C)(C)C)cc1`: > 79 µM (inactive); `Cc1nn(-c2ccccc2)c(N2CCCC2)c1/C=N/NC(=O)c1cc(-c2ccccn2)nc2ccccc12`: > 79 µM (inactive). As to `Cc1ccc(OCC(=O)Nc2nc(-c3ccccn3)cs2)c(C)c1`, the negative logarithm of the IC50 (pIC50) was 4.79. Regarding `NC(=O)C1=C(c2ccccc2)c2ccccc2C1=O`, the IC50 was > 79 µM (inactive). Still for that read-out and setting: the same measure for `Cc1ccc(C(=O)OCC(=O)Nc2sccc2C(N)=O)cc1NC(=O)c1ccco1`: > 79 µM (inactive); for `C/C(=N\NC(=O)c1ccccc1-n1cccc1)c1ccccn1`: > 79 µM (inactive); for `CC(OC(=O)Cn1[nH]c(=O)c2ccccc2c1=O)C(=O)Nc1cccc(Cl)c1` (stereo not given): > 79 µM (inactive).

As for `CCCCCCSc1ccc([C@H]2N[C@@](Cc3ccccc3)(C(=O)OC)[C@H]3C(=O)N(C)C(=O)[C@@H]23)cc1`, the IC50 is > 79 µM (inactive).

`CC(=O)c1ccc(C(=O)Nc2nnc(-c3ccc(Cl)cc3)o2)cc1`: the pIC50 is 4.81. On to `CCN(CC(=O)Nc1cc(Cl)ccc1C)C(=O)C1CCN(c2ncnc3sc(C)c(C)c23)CC1`, for which the IC50 is > 79 µM (inactive). As for `CC(=O)Nc1ccc(C(=O)N/N=C/c2ccccc2OC(=O)c2ccc(Cl)cc2)cc1`, the pIC50 is 4.94. For `CN1CCN(Cc2nc3ccccc3c(=O)[nH]2)CC1`, the IC50 was > 79 µM (inactive). Same read-out and setting: the same measure for `COc1cccc(-c2cnc3c(NC=O)cc(-c4ccc(O)c(OC)c4)cn23)c1`: > 79 µM (inactive).

For `O=C(COC(=O)Cc1n[nH]c(=O)c2ccccc12)Nc1ccc(Cl)cn1`, the IC50 is > 79 µM (inactive). As for `O=C(NC1CCCCC1)C(c1ccc2ncccc2c1)N(Cc1ccco1)C(=O)c1ccc2c(c1)OCCO2` (stereo not given), the IC50 was 31.4 µM (inactive). With `C[C@@H]1CN([C@@H](C)CO)C(=O)c2cc(NC(=O)Nc3ccccc3)ccc2O[C@H]1CN(C)C(=O)Nc1cccc2ccccc12`, the negative-log IC50 (pIC50) is 4.80. For the compound `NC(=O)c1nsc(C(=O)N(Cc2ccco2)C(C(=O)NCc2ccccc2)c2ccc(O)cc2)c1N` (stereo not given), the pIC50 was 5.00. As for `Cc1cc(NC(=O)c2cccs2)cc(-c2nc3ncccc3o2)c1O`, the IC50 is > 79 µM (inactive). The same measure, in the same setting: next, `CCOC(=O)c1ccccc1NC(=O)c1ccc2c(=O)n3c(nc2c1)CCCCC3`: > 79 µM (inactive).

For the compound `Oc1c(Br)cc(Br)cc1C=Nc1ccc2c(c1)OCCO2`, the pIC50 is 4.61. For `COc1cc(/C=C/c2nc(-c3ccccc3O)n[nH]2)cc(OC)c1OC`, the IC50 was > 79 µM (inactive). `COc1ccc(NC(=O)CCCc2nc3ccccc3c(=O)[nH]2)cc1Cl`: the IC50 was > 79 µM (inactive).

On to `CCOC(=O)c1cnc(SC)nc1Oc1cccc(NC(=O)c2cccc(Cl)c2Cl)c1`, for which the pIC50 was 4.69. Still for that read-out and setting: the same measure for `C=CCOC(=O)COc1ccc2c3c(c(=O)oc2c1)CCCC3`: 4.55.

For the compound `O=C(N/N=C/c1cccc(O)c1)c1cc(-c2ccc3c(c2)OCO3)n[nH]1`, the IC50 was > 79 µM (inactive). Regarding `O=C(COC(=O)c1ccc([N+](=O)[O-])s1)Nc1ccc(Cl)cn1`, the IC50 was > 79 µM (inactive). With `NC(=O)c1ccc(Nc2nnc(-c3ccc(O)cc3)c3ccccc23)cc1`, the pIC50 was 4.53. As for `Cc1nc2ccccc2c(=O)[nH]1`, the IC50 is > 79 µM (inactive). On the same count and under the same terms, next, `COc1cc(/C=N/NC(=O)c2ccccc2O)ccc1OCC(=O)Nc1ccccc1`: > 79 µM (inactive); `O=c1[nH]nc(Cc2ccccc2)c2ccccc12`: > 79 µM (inactive); `COc1c(C)cc(Br)cc1C(=O)Nc1cccc(-c2nc3ncccc3o2)c1`: > 79 µM (inactive). For the compound `COc1ccnc(Oc2ccc(F)cc2)c1C(=O)N/C=N/OCc1ccc(Cl)cc1Cl`, the pIC50 is 4.91.

Take `CCCn1nc(C(=O)Nc2nc(-c3ccccn3)cs2)c2ccccc2c1=O`: the IC50 is > 79 µM (inactive). On the same count and under the same terms, next, `CN(C)CCCNc1ccc(-c2n[nH]c(=O)c3ccccc23)cc1[N+](=O)[O-]`: > 79 µM (inactive). On the same count and under the same terms, next, `O=C(NCc1ccco1)c1cnn2c(C(F)(F)F)cc(-c3cccs3)nc12`: > 79 µM (inactive); `Oc1c(Br)cc(Br)cc1C=NCc1ccc(F)cc1`: > 79 µM (inactive). In the case of `CC12C=CC(=O)CC1CCC1C2CCC2(C)C(O)C(O)CC12` (stereo not given), the pIC50 was 4.91.

As for `CCOc1ccc2nc(NC(=O)CN3CCC(n4nnc5cc(F)ccc54)CC3)sc2c1`, the IC50 is > 79 µM (inactive). Still for that read-out and setting: next, `Cc1cc(Nc2ccccc2C(=O)O)nc2nc3ccccc3c(=O)n12`: > 79 µM (inactive); `O=C(CSc1nnc(-c2cccnc2)n1Cc1ccco1)c1ccccc1`: > 79 µM (inactive).

`Nc1nc(-c2c[nH]c3ccccc23)cs1`: the IC50 is > 79 µM (inactive).

With `COc1cccc(NC(=O)CN(C)C(=O)Cc2n[nH]c(=O)c3ccccc23)c1`, the IC50 is > 79 µM (inactive). Same read-out and setting: next, `O=C(CC1CC2CCC1C2)Nc1nc(-c2ccccn2)cs1` (stereo not given): > 79 µM (inactive). As to `O=C(COc1ccc(F)cc1)N/N=C/c1cccc2cccnc12`, the IC50 is > 79 µM (inactive). For `O=C(CSc1ccc2nnc(-c3ccc(F)cc3)n2n1)N1CCCc2ccccc21`, the negative-log IC50 (pIC50) is 4.87. On the same count and under the same terms, the same measure for `CCOC(=O)C1CCN(C(=O)c2ccc3c(=O)n4nc(Nc5ccccc5OC)sc4nc3c2)CC1`: 4.71. Turning to `CN(C)S(=O)(=O)c1cccc(NC(=O)COC(=O)c2ccc([N+](=O)[O-])o2)c1`, the IC50 is > 79 µM (inactive).

Consider `COc1cccc(/C=N/NC(=O)c2nc(-c3ccccc3)cc(-c3ccccc3)n2)c1`, for which the IC50 was > 79 µM (inactive). Regarding `O=C(Nc1ccccc1)c1nc[nH]c1C(=O)NCCNC(=O)c1[nH]cnc1C(=O)Nc1ccccc1`, the IC50 is > 79 µM (inactive). On to `O=CNc1cc(-c2ccc(C(=O)NC3CC3)cc2)cn2c(-c3ccc(F)c(Cl)c3)cnc12`, for which the IC50 was > 79 µM (inactive). As to `O=C(COC(=O)c1cc(-c2cccnc2)nc2ccccc12)Nc1ccc(F)cc1F`, the pIC50 is 4.63. As to `CS/C(=N\S(=O)(=O)c1ccccc1)c1ccccc1`, the IC50 is 41.3 µM (inactive).

For the compound `COc1ccccc1-c1cc(NC(C)=O)c2ncc(-c3cccc(C(C)=O)c3)n2c1`, the pIC50 is 4.87. On to `Fc1ccc(-n2cc(-c3ccccc3)c3c(N4CCOCC4)ncnc32)cc1`, for which the IC50 is > 79 µM (inactive).

`Oc1ccc2oc3c(c2c1C=NCc1ccncc1)CCCC3`: the IC50 was > 79 µM (inactive).

Turning to `O=C(COC(=O)CCc1nc2ccccc2c(=O)[nH]1)Nc1c(Cl)cccc1C(F)(F)F`, the IC50 is > 79 µM (inactive). The same measure, in the same setting: next, `COc1ccc(OCC(O)Cn2c(Br)nc3c2c(=O)[nH]c(=O)n3C)cc1` (stereo not given): 38.7 µM (inactive); `CC(C)(C)c1ccc(OCCCC(=O)NNC(=O)c2ccccc2O)cc1`: > 79 µM (inactive); `O=C(COC(=O)Cn1[nH]c(=O)c2ccccc2c1=O)Nc1ncc(Cl)cc1Cl`: > 79 µM (inactive).

As for `COC(=O)c1ccccc1S(=O)(=O)N(Cc1ccco1)Cc1cc2cc(OC)ccc2[nH]c1=O`, the pIC50 was 4.81. Consider `CCOC(=O)c1[nH]c2cc(OC)c(OC)cc2c1NC(=O)C(C)N1CCN(Cc2ccccc2)CC1` (stereo not given), for which the IC50 is > 79 µM (inactive). As for `CCOC(=O)c1c(NC(=O)COC(=O)c2ccc(O)cc2)sc(C(=O)N(C)C)c1C`, the IC50 is > 79 µM (inactive).

On to `CC(=O)N1CCN(C(=O)CCc2nc3ccccc3c(=O)[nH]2)CC1`, for which the IC50 was > 79 µM (inactive). Still for that read-out and setting: the same measure for `CCN1CCN(c2nc3c(c(=O)[nH]2)CCC3)CC1`: > 79 µM (inactive); for `COC(=O)c1ccccc1NC(=O)c1nc2nc(C)cc(C)n2n1`: > 79 µM (inactive); for `Cc1nn(-c2ccccc2)c(Cl)c1C(=O)NNC(=O)c1ccccc1O`: > 79 µM (inactive). Turning to `Cn1c(=O)n(CCc2ccccc2)c(=O)c2c1nc1n2CCN1Cc1ccco1`, the negative logarithm of the IC50 (pIC50) was 4.67.
